Assay results from ChEMBL document CHEMBL1641529, “Novel 9a,11-bridged azalides: One-pot synthesis of N'-substituted 2-imino-1,3-oxazolidines condensed to an azalide aglycone” (2011).
≈ marks a conversion by molar mass, not a printed value.

Tests used:
Staphylococcus aureus = assay: Antimicrobial activity against Staphylococcus aureus after 24 hrs by microdilution method; assay type: functional
Haemophilus influenzae = assay: Antimicrobial activity against Haemophilus influenzae after 24 hrs by microdilution method; assay type: functional
Moraxella catarrhalis = assay: Antimicrobial activity against Moraxella catarrhalis after 24 hrs by microdilution method; assay type: functional
Streptococcus pyogenes = assay: Antimicrobial activity against Streptococcus pyogenes after 24 hrs by microdilution method; assay type: functional
Saccharomyces cerevisiae = assay: Toxicity in Saccharomyces cerevisiae after 24 hrs by microdilution method; assay type: functional, organism-based
Streptococcus pneumoniae = assay: Antimicrobial activity against Streptococcus pneumoniae after 24 hrs by microdilution method; assay type: functional

Row | SMILES | MIC (Staphylococcus aureus) | MIC (Haemophilus influenzae) | MIC (Moraxella catarrhalis) | MIC (Streptococcus pyogenes) | Activity (Saccharomyces cerevisiae) | MIC (Streptococcus pneumoniae)
1 | CC[C@H]1OC(=O)[C@H](C)[C@@H](O[C@@H]2C[C@@](C)(OC)[C@@H](O)[C@H](C)O2)[C@H](C)[C@@H](O[C@@H]2O[C@H](C)C[C@H](N(C)C)[C@H]2O)[C@](C)(O)C[C@@H](C)CN2/C(=N\c3ccc(-c4ccccc4)cc3OC)O[C@H]([C@H]2C)[C@]1(C)O | 2 µg/mL (≈ 2.12 µM) | 8 µg/mL (≈ 8.49 µM) | 8 µg/mL (≈ 8.49 µM) | < 0.125 µg/mL | Not toxic | < 0.125 µg/mL
2 | CC[C@H]1OC(=O)[C@H](C)[C@@H](O[C@@H]2C[C@@](C)(OC)[C@@H](O)[C@H](C)O2)[C@H](C)[C@@H](O[C@@H]2O[C@H](C)C[C@H](N(C)C)[C@H]2O)[C@](C)(O)C[C@@H](C)CN2/C(=N\Cc3ccccc3)O[C@H]([C@H]2C)[C@]1(C)O | 2 µg/mL (≈ 2.35 µM) | 16 µg/mL (≈ 18.8 µM) | 2 µg/mL (≈ 2.35 µM) | < 0.125 µg/mL | Not toxic | < 0.125 µg/mL
3 | CC[C@H]1OC(=O)[C@H](C)[C@@]2(O)O[C@@](C)(C[C@@H](C)CN3/C(=N\Cc4ccccc4)O[C@H]([C@H]3C)[C@]1(C)O)[C@H](O[C@@H]1O[C@H](C)C[C@H](N(C)C)[C@H]1O)[C@H]2C | > 64 µg/mL | > 64 µg/mL | 32 µg/mL (≈ 46.4 µM) | 32 µg/mL (≈ 46.4 µM) | Not toxic | 32 µg/mL (≈ 46.4 µM)
4 | CC[C@H]1OC(=O)[C@H](C)[C@@H](O)[C@H](C)[C@@H](O[C@@H]2O[C@H](C)C[C@H](N(C)C)[C@H]2O)[C@](C)(O)C[C@@H](C)CN2/C(=N\Cc3ccccc3)O[C@H]([C@H]2C)[C@]1(C)O | 64 µg/mL (≈ 92.5 µM) | > 64 µg/mL | 64 µg/mL (≈ 92.5 µM) | 8 µg/mL (≈ 11.6 µM) | Not toxic | 8 µg/mL (≈ 11.6 µM)
5 | CC[C@H]1OC(=O)[C@H](C)[C@@H](O[C@@H]2C[C@@](C)(OC)[C@@H](O)[C@H](C)O2)[C@H](C)[C@@H](O[C@@H]2O[C@H](C)C[C@H](N(C)C)[C@H]2O)[C@](C)(O)C[C@@H](C)CN2/C(=N\c3cccc4ccccc34)O[C@H]([C@H]2C)[C@]1(C)O | 8 µg/mL (≈ 9.03 µM) | 8 µg/mL (≈ 9.03 µM) | 4 µg/mL (≈ 4.51 µM) | 0.25 µg/mL (≈ 0.282 µM) | Not toxic | < 0.125 µg/mL
6 | CC[C@H]1OC(=O)[C@H](C)[C@@H](O)[C@H](C)[C@@H](O[C@@H]2O[C@H](C)C[C@H](N(C)C)[C@H]2O)[C@](C)(O)C[C@@H](C)CN2/C(=N\c3ccc(-c4ccccc4)cc3OC)O[C@H]([C@H]2C)[C@]1(C)O | > 64 µg/mL | > 64 µg/mL | 32 µg/mL (≈ 40.8 µM) | > 64 µg/mL | Not toxic | > 64 µg/mL
7 | CC[C@H]1OC(=O)[C@H](C)[C@@H](O)[C@H](C)[C@@H](O[C@@H]2O[C@H](C)C[C@H](N(C)C)[C@H]2O)[C@](C)(O)C[C@@H](C)CN2/C(=N\c3cccc4ccccc34)O[C@H]([C@H]2C)[C@]1(C)O | > 64 µg/mL | > 64 µg/mL | 64 µg/mL (≈ 87.9 µM) | > 64 µg/mL | Not toxic | > 64 µg/mL
8 | CC[C@H]1OC(=O)[C@H](C)C(=O)[C@H](C)[C@@H](O[C@@H]2O[C@H](C)C[C@H](N(C)C)[C@H]2O)[C@](C)(OC)C[C@@H](C)CN2/C(=N\Cc3ccccc3)O[C@H]([C@H]2C)[C@]1(C)O | > 64 µg/mL | > 64 µg/mL | 8 µg/mL (≈ 11.4 µM) | 8 µg/mL (≈ 11.4 µM) | Not toxic | 2 µg/mL (≈ 2.84 µM)
9 | CC[C@H]1OC(=O)[C@H](C)[C@@H](O[C@@H]2C[C@@](C)(OC)[C@@H](O)[C@H](C)O2)[C@H](C)[C@@H](O[C@@H]2O[C@H](C)C[C@H](N(C)C)[C@H]2O)[C@](C)(O)C[C@@H](C)CN2/C(=N\C(C)C)O[C@H]([C@H]2C)[C@]1(C)O | 16 µg/mL (≈ 19.9 µM) | > 64 µg/mL | 16 µg/mL (≈ 19.9 µM) | 2 µg/mL (≈ 2.49 µM) | Not toxic | 2 µg/mL (≈ 2.49 µM)
10 | CC[C@H]1OC(=O)[C@H](C)[C@@H](O[C@@H]2C[C@@](C)(OC)[C@@H](O)[C@H](C)O2)[C@H](C)[C@@H](O[C@@H]2O[C@H](C)C[C@H](N(C)C)[C@H]2O)[C@](C)(OC)C[C@@H](C)CN2/C(=N\Cc3ccccc3)O[C@H]([C@H]2C)[C@]1(C)O | 2 µg/mL (≈ 2.31 µM) | 16 µg/mL (≈ 18.5 µM) | 2 µg/mL (≈ 2.31 µM) | < 0.125 µg/mL | Not toxic | < 0.125 µg/mL
11 | CC[C@H]1OC(=O)[C@H](C)[C@@H](O)[C@H](C)[C@@H](O[C@@H]2O[C@H](C)C[C@H](N(C)C)[C@H]2O)[C@](C)(OC)C[C@@H](C)CN2/C(=N\c3cccc4ccccc34)O[C@H]([C@H]2C)[C@]1(C)O | > 64 µg/mL | > 64 µg/mL | 16 µg/mL (≈ 21.6 µM) | > 64 µg/mL | Not toxic | 64 µg/mL (≈ 86.3 µM)
12 | CC[C@H]1OC(=O)[C@H](C)[C@@H](O[C@@H]2C[C@@](C)(OC)[C@@H](O)[C@H](C)O2)[C@H](C)[C@@H](O[C@@H]2O[C@H](C)C[C@H](N(C)C)[C@H]2O)[C@](C)(OC)C[C@@H](C)CN2/C(=N\c3cccc4ccccc34)O[C@H]([C@H]2C)[C@]1(C)O | 16 µg/mL (≈ 17.8 µM) | 32 µg/mL (≈ 35.5 µM) | 8 µg/mL (≈ 8.89 µM) | 1 µg/mL (≈ 1.11 µM) | Not toxic | 0.5 µg/mL (≈ 0.555 µM)
13 | CC[C@H]1OC(=O)[C@H](C)[C@@H](O[C@@H]2C[C@@](C)(OC)[C@@H](O)[C@H](C)O2)[C@H](C)[C@@H](O[C@@H]2O[C@H](C)C[C@H](N(C)C)[C@H]2O)[C@](C)(OC)C[C@@H](C)CN2/C(=N\C(C)C)O[C@H]([C@H]2C)[C@]1(C)O | 16 µg/mL (≈ 19.6 µM) | 64 µg/mL (≈ 78.4 µM) | 2 µg/mL (≈ 2.45 µM) | 1 µg/mL (≈ 1.23 µM) | Not toxic | 0.5 µg/mL (≈ 0.613 µM)
14 | CC[C@H]1OC(=O)[C@H](C)[C@@]2(O)O[C@@](C)(C[C@@H](C)CN3/C(=N\C(C)C)O[C@H]([C@H]3C)[C@]1(C)O)[C@H](O[C@@H]1O[C@H](C)C[C@H](N(C)C)[C@H]1O)[C@H]2C | > 64 µg/mL | > 64 µg/mL | 32 µg/mL (≈ 49.9 µM) | 32 µg/mL (≈ 49.9 µM) | Not toxic | 16 µg/mL (≈ 24.9 µM)
15 | CC[C@H]1OC(=O)[C@H](C)C(=O)[C@H](C)[C@@H](O[C@@H]2O[C@H](C)C[C@H](N(C)C)[C@H]2O)[C@](C)(OC)C[C@@H](C)CN2/C(=N\C(C)C)O[C@H]([C@H]2C)[C@]1(C)O | > 64 µg/mL | > 64 µg/mL | 16 µg/mL (≈ 24.4 µM) | > 64 µg/mL | Not toxic | 16 µg/mL (≈ 24.4 µM)
16 | CC[C@H]1OC(=O)[C@H](C)[C@@H](O)[C@H](C)[C@@H](O[C@@H]2O[C@H](C)C[C@H](N(C)C)[C@H]2O)[C@](C)(OC)C[C@@H](C)CN2/C(=N\Cc3ccccc3)O[C@H]([C@H]2C)[C@]1(C)O | > 64 µg/mL | > 64 µg/mL | > 64 µg/mL | 16 µg/mL (≈ 22.7 µM) | Not toxic | 32 µg/mL (≈ 45.3 µM)
17 | CC[C@H]1OC(=O)[C@H](C)[C@@H](O)[C@H](C)[C@@H](O[C@@H]2O[C@H](C)C[C@H](N(C)C)[C@H]2O)[C@](C)(O)C[C@@H](C)CN2/C(=N\C(C)C)O[C@H]([C@H]2C)[C@]1(C)O | > 64 µg/mL | > 64 µg/mL | > 64 µg/mL | 8 µg/mL (≈ 12.4 µM) | Not toxic | 4 µg/mL (≈ 6.21 µM)
